Assay results published in PubChem BioAssay AID1963965 (Molecular Pharmacology Branch, DTP, NCI, 2024).

Tested on: 996289-038-R-J1-PDC spheroid viability
Test: Anticancer human tumor 996289-038-R-J1-PDC patient-derived colon adenocarcinoma cell line growth inhibition [PI3K]
Details: spheroids with HUVEC and MSC; for IC50: curve of first compound; for viability, T/C: stronger effect = lower value
Method in brief: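 High-throughput combination screen: PI3K inhibitors crossed with targeted small molecules on complex spheroids of tumor cells, HUVEC and MSCs at 37 degrees C, 5% CO2. Top concentration was at or near clinical Cmax (otherwise 10 microM), with half-log decrements.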

[1] = second compound 0.0316 µM, first compound 0.0316 µM
[2] = second compound 0.0316 µM, first compound 0.1 µM
[3] = second compound 0.1 µM, first compound 0.0316 µM
[4] = second compound 0.1 µM, first compound 0.1 µM
[5] = second compound 0.316 µM, first compound 0.0316 µM
[6] = second compound 0.316 µM, first compound 0.1 µM
[7] = second compound 1 µM, first compound 0.0316 µM
[8] = second compound 1 µM, first compound 0.1 µM
[9] = second compound 3.16 µM, first compound 0.0316 µM
[10] = second compound 3.16 µM, first compound 0.1 µM
[11] = second compound 10 µM, first compound 0.0316 µM
[12] = second compound 10 µM, first compound 0.1 µM
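Further: spheroids exposed to compounds for seven days before viability read.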
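Wherever viability, T/C is given: luminescence used as a proxy for viable cell amount; percent viability relative to DMSO vehicle control as 100%.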

Question: How did the IC50 (second compound 0.0316 µM) turn out when `C[C@@H](NC(=O)c1ncnc(N)c1Cl)c1ncc(C(=O)Nc2cc(C(F)(F)F)c(Cl)cn2)s1` + Cc1nc(NC(=O)N2CCCC2C(N)=O)sc1-c1ccnc(C(C)(C)C(F)(F)F)c1 was run?
Answer: > 10000 nM

Question: And the IC50 (second compound 0.1 µM)?
Answer: > 10000 nM

Question: What about the IC50 (second compound 0.316 µM) of the same molecule?
Answer: > 10000 nM

Question: And the IC50 (second compound 1 µM)?
Answer: > 10000 nM

Question: And the IC50 (second compound 3.16 µM)?
Answer: > 10000 nM

Question: And the IC50 (second compound 10 µM)?
Answer: < 31.6 nM

Question: And the viability, T/C [1]?
Answer: 89.5%

Question: And the viability, T/C [2]?
Answer: 89.8%

Question: And the viability, T/C (second compound 0.0316 µM, first compound 0.316 µM)?
Answer: 124%

Question: What about the viability, T/C (second compound 0.0316 µM, first compound 1 µM) of the same molecule?
Answer: 114%

Question: What about the viability, T/C (second compound 0.0316 µM, first compound 3.16 µM) of the same molecule?
Answer: 113%

Question: What about the viability, T/C (second compound 0.0316 µM, first compound 10 µM) of the same molecule?
Answer: 128%

Question: What about the viability, T/C [3] of the same molecule?
Answer: 99.3%

Question: And the viability, T/C [4]?
Answer: 100%

Question: What about the viability, T/C (second compound 0.1 µM, first compound 0.316 µM) of the same molecule?
Answer: 103%

Question: What about the viability, T/C (second compound 0.1 µM, first compound 1 µM) of the same molecule?
Answer: 104%

Question: And the viability, T/C (second compound 0.1 µM, first compound 3.16 µM)?
Answer: 109%

Question: What about the viability, T/C (second compound 0.1 µM, first compound 10 µM) of the same molecule?
Answer: 105%

Question: What about the viability, T/C [5] of the same molecule?
Answer: 80.5%

Question: And the viability, T/C [6]?
Answer: 88.6%

Question: What about the viability, T/C (second compound 0.316 µM, first compound 0.316 µM) of the same molecule?
Answer: 90.8%

Question: What about the viability, T/C (second compound 0.316 µM, first compound 1 µM) of the same molecule?
Answer: 93.9%

Question: What about the viability, T/C (second compound 0.316 µM, first compound 3.16 µM) of the same molecule?
Answer: 109%

Question: What about the viability, T/C (second compound 0.316 µM, first compound 10 µM) of the same molecule?
Answer: 92.4%

Question: What about the viability, T/C [7] of the same molecule?
Answer: 64.3%

Question: And the viability, T/C [8]?
Answer: 72.8%

Question: What about the viability, T/C (second compound 1 µM, first compound 0.316 µM) of the same molecule?
Answer: 73.5%

Question: What about the viability, T/C (second compound 1 µM, first compound 1 µM) of the same molecule?
Answer: 81.1%

Question: What about the viability, T/C (second compound 1 µM, first compound 3.16 µM) of the same molecule?
Answer: 102%

Question: What about the viability, T/C (second compound 1 µM, first compound 10 µM) of the same molecule?
Answer: 70.8%

Question: And the viability, T/C [9]?
Answer: 62.1%

Question: What about the viability, T/C [10] of the same molecule?
Answer: 68.3%

Question: And the viability, T/C (second compound 3.16 µM, first compound 0.316 µM)?
Answer: 60.3%

Question: What about the viability, T/C (second compound 3.16 µM, first compound 1 µM) of the same molecule?
Answer: 67.7%

Question: What about the viability, T/C (second compound 3.16 µM, first compound 3.16 µM) of the same molecule?
Answer: 68.7%

Question: What about the viability, T/C (second compound 3.16 µM, first compound 10 µM) of the same molecule?
Answer: 54.3%

Question: And the viability, T/C [11]?
Answer: 40.6%

Question: What about the viability, T/C [12] of the same molecule?
Answer: 47.1%

Question: And the viability, T/C (second compound 10 µM, first compound 0.316 µM)?
Answer: 54.3%

Question: And the viability, T/C (second compound 10 µM, first compound 1 µM)?
Answer: 44.3%

Question: What about the viability, T/C (second compound 10 µM, first compound 3.16 µM) of the same molecule?
Answer: 46.9%

Question: What about the viability, T/C (second compound 10 µM, first compound 10 µM) of the same molecule?
Answer: 39.9%

Question: Which results are given for `Cn1ncnc1[C@H]1c2n[nH]c(=O)c3cc(F)cc(c23)N[C@@H]1c1ccc(F)cc1` + Cc1nc(NC(=O)N2CCCC2C(N)=O)sc1-c1ccnc(C(C)(C)C(F)(F)F)c1?
Answer: IC50 (second compound 0.0316 µM): > 100 nM; IC50 (second compound 0.1 µM): > 100 nM; IC50 (second compound 0.316 µM): > 100 nM; IC50 (second compound 1 µM): > 100 nM; IC50 (second compound 3.16 µM): > 100 nM; IC50 (second compound 10 µM): < 0.316 nM; viability, T/C (second compound 0.0316 µM, first compound 0.000316 µM): 120%; viability, T/C (second compound 0.0316 µM, first compound 0.001 µM): 117%; viability, T/C (second compound 0.0316 µM, first compound 0.00316 µM): 97.9%; viability, T/C (second compound 0.0316 µM, first compound 0.01 µM): 90.3%; viability, T/C [1]: 99.9%; viability, T/C [2]: 99%; viability, T/C (second compound 0.1 µM, first compound 0.000316 µM): 113%; viability, T/C (second compound 0.1 µM, first compound 0.001 µM): 101%; viability, T/C (second compound 0.1 µM, first compound 0.00316 µM): 79.5%; viability, T/C (second compound 0.1 µM, first compound 0.01 µM): 84.9%; viability, T/C [3]: 91.2%; viability, T/C [4]: 83.2%; viability, T/C (second compound 0.316 µM, first compound 0.000316 µM): 88.3%; viability, T/C (second compound 0.316 µM, first compound 0.001 µM): 85%; viability, T/C (second compound 0.316 µM, first compound 0.00316 µM): 84.1%; viability, T/C (second compound 0.316 µM, first compound 0.01 µM): 89.8%; viability, T/C [5]: 90.8%; viability, T/C [6]: 77.3%; viability, T/C (second compound 1 µM, first compound 0.000316 µM): 76.6%; viability, T/C (second compound 1 µM, first compound 0.001 µM): 70.9%; viability, T/C (second compound 1 µM, first compound 0.00316 µM): 78.5%; viability, T/C (second compound 1 µM, first compound 0.01 µM): 77.9%; viability, T/C [7]: 76.7%; viability, T/C [8]: 68.3%; viability, T/C (second compound 3.16 µM, first compound 0.000316 µM): 53.7%; viability, T/C (second compound 3.16 µM, first compound 0.001 µM): 69.4%; viability, T/C (second compound 3.16 µM, first compound 0.00316 µM): 64%; viability, T/C (second compound 3.16 µM, first compound 0.01 µM): 61.1%; viability, T/C [9]: 62%; viability, T/C [10]: 58.4%; viability, T/C (second compound 10 µM, first compound 0.000316 µM): 42.5%; viability, T/C (second compound 10 µM, first compound 0.001 µM): 51.5%; viability, T/C (second compound 10 µM, first compound 0.00316 µM): 49.5%; viability, T/C (second compound 10 µM, first compound 0.01 µM): 44.2%; viability, T/C [11]: 55.1%; viability, T/C [12]: 40.8%
